Data taken from patent US11091529B2, “Peptides having reduced toxicity that stimulate cholesterol efflux” (The Regents of the University of California, priority 2014, dated 2021).
Where no end group is shown, it is not given here.

System: male, chow-fed C57Bl/6 mice
Experiment: Safety and TG elevating effects after IP injection of peptides (plasma CPK, ALT, AST, TG)
Conditions: 300 mg/kg IP; for muscle toxicity as judged by CPK activity in plasma: compared with ATI-5261
Description: Since the position of positively charged amino acids near the lipid-water interface of class A α-helices is thought to mediate membrane interactions, we tested whether inverting the positions of positive and negative residues within ATI-5261 lessened the toxic response of the peptide at high doses. Panel A—Helical-wheel and net diagrams of ATI-5261 showing the positions of positively charged lysine (K) and arginine (R) at the lipid interface of the amphipathic α-helix (i.e. helical wheel diagrams on left). […] Plasma CPK, ALT, AST and TG (table) were assessed after 4 h. Values and means±SD, n=4.
Panel A—The positions of charged amino acids within the LeuATI-5261 peptide were switched to move the positive lysine and arginine residues away from the lipid-water interface of the amphipathic α-helix. Panel B— Safety and TG elevating effects were evaluated by injecting (IP) peptides (300 mg/kg) into male, chow-fed C57Bl/6 mice. Values are means SD, n=4. […] J774 macrophages were labeled with [3H]cholesterol and treated with (red, right side bars) and without (blue, left side bars) cAMP to modulate ABCA1 expression.
Panel A—Safety and TG elevating effects were evaluated by injecting (IP) peptides (300 mg/kg) into male, chow-fed C57Bl/6 mice. Values are means SD, n=4. […] Panel B-ABCA1-dependent cholesterol efflux activity of peptides determined using J774 macrophages labeled with [3H]cholesterol. Results are expressed as the ABCA1 component of efflux.
Peptides or peptidomeimetics of the invention can be evaluated for toxicity using known assays. […] Safety chemistry panels including plasma alanine aminotransferase (ALT), aspartate amino transferase (AST), and creatine kinase (CK) can then be determined in the blood. […]
Since the position of positively charged amino acids near the lipid-water interface of class A α-helices is thought to mediate membrane interactions, we tested whether inverting the positions of positive and negative residues within ATI-5261 lessened the toxic response of the peptide at high doses. […] Plasma CPK, ALT, AST and TG (table) were assessed after 4 h as described in FIGS. 4-6. […]

Sequence | cytotoxicity (plasma CPK, ALT, AST) (plasma after 4 h, n=4) | muscle toxicity as judged by CPK activity in plasma
KVESELREWLAALEKLARRLLAELES [T6023-2] | no increase in muscle toxicity or elevated plasma enzymes compared to vehicle alone | 
EVRSKLEEWFAAFREFAEEFLARL [T5766-5] |  | greatly reduced muscle toxicity
EVRSKLEEWFAAFREFAEEFLARLNS [T5594-4] |  | greatly reduced muscle toxicity
